Literature values, collected in patent US20250064971A1, “SUSTAINED RELEASE FORMULATIONS AND METHODS OF USE THEREOF” (VIRGINIA COMMONWEALTH UNIVERSITY, priority 2022, published 2025).

Molecular target: hERG (Homo sapiens, UniProt Q12809)
Conditions: compared to LAAM

Sequence of hERG (Q12809 whole entry): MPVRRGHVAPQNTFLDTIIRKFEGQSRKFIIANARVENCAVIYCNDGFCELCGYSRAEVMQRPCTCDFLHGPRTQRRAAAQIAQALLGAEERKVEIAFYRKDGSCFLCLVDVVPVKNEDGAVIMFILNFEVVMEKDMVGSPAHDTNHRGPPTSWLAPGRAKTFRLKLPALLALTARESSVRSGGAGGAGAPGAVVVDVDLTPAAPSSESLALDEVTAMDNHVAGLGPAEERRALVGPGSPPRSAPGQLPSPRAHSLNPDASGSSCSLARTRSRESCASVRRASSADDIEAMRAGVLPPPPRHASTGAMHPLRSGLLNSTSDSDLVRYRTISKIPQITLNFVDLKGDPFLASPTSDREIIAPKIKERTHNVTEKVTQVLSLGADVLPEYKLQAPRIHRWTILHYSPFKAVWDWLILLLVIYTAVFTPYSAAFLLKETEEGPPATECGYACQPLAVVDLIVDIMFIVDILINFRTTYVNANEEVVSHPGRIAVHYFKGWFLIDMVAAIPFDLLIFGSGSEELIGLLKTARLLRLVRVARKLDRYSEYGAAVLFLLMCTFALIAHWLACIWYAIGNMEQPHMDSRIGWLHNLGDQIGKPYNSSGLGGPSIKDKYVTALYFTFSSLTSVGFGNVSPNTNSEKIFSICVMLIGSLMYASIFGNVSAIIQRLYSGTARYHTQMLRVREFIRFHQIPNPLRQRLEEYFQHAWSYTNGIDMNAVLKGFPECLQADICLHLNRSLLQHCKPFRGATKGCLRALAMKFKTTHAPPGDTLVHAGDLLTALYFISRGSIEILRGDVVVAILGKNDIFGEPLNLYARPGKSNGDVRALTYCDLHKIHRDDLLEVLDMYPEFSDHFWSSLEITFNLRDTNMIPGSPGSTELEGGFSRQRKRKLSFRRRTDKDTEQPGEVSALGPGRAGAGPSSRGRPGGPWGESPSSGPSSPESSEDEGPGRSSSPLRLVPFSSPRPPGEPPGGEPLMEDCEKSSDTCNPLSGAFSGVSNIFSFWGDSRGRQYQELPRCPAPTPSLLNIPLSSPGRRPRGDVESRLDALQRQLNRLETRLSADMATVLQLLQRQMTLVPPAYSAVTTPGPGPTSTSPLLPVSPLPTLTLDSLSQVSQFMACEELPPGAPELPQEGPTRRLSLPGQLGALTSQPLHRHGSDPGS

## CCC(OC(C)=O)C(CC(C)NC)(c1ccccc1)c1ccccc1 (stereo not shown) [nor-LAAM]
  hERG inhibition IC50 (comparison in words): higher hERG inhibition IC50 than LAAM
